Data published in US20250368666A1, “INDAZOLE COMPOUNDS” (TYRA BIOSCIENCES, INC., priority 2022, published 2025).

Assays:
[1] = test system: HuH7 cell line (FGF19 amplification); assay: Cancer cell line cell viability assay (Cell Titer-Glo), 120 hr; assay type: cell-based; conditions: Homo sapiens, Huh-7
Description: Experimental Purpose: To detect the change of intracellular ATP by Cell Titer-Glo® and to evaluate the inhibitory effect of the compounds on cancer cell lines by determining the in vitro IC50 value of the compounds.
Cell Titer-Glo® 2.0 Luminescent cell viability assay reagent was purchased from Promega (Madison, WI). KG-1, KATO-III, and MDA-MB-453 cell lines were purchased from American Type Culture Collection (Manassas, VA). RT112/84 cell line was purchased from Millipore-Sigma (St. Louis, MO). HuH7 cells were purchased from Seikisui Xenotech (Kansas City, KS). RT112/84 and MDA-MB-453 cells were cultured in RPMI1640 media supplemented with 10% fetal bovine serum. KG-1 and KATO-III cell lines were cultured in IMDM media supplemented with 20% FBS. HuH7 cells were cultured in IMDM media supplemented with 10% FBS. Cultures were maintained at 37° C. in a humidified atmosphere of 5% CO2 and 95% air.
Cell Viability Assay Procedure: Cells were plated in 96-well clear bottom/white plates (Corning #3903) at a range of densities depending on the optimal assay window (5,000-20,000 cells/well in […] of media), incubated overnight. The next day, test compound DMSO stock solutions were made at 10 mM and […] final concentration. Compounds were then added to cells in a 9-dose, 4-fold dilution series starting at 3 μM with an HP 300e Digital Dispenser (each dose was applied in triplicate). DMSO was backfilled to each well up to 301 nL total volume of test compound+DMSO, and a total of 301 nL DMSO was added to a control/no test compound well in triplicate. The cells in cell culture plates were incubated with the compounds at 37° C. and 5% CO2 for 72 hours-120 hours depending on the cell line. Then 50 μl of Cell Titer Glo 2.0 reagent was added to each well of the cell culture plates. The contents were covered from light and mixed on an orbital shaker at room temperature for minimum of 10 min. Luminescence was recorded by a Clariostar Plus Microplate Reader (BMG Labtech, Cary, NC). Cells were assessed as a percentage of DMSO only treated control cells. Curves were plotted and IC50 values were calculated using the GraphPad Prism 9 program based on a sigmoidal dose-response equation (log (inhibitor) vs. response—Variable slope, 4-parameter).

[2] = molecular target: T1, FGFR1 (Homo sapiens, UniProt P11362); assay: Kinase binding assay (kinase-tagged T7 phage, affinity beads, qPCR), Kd; conditions: read-out: FGFR1 (Kd nM)
T1 construct: made in house; host or cells: E. coli (BL21-derived), T7 phage
T1 sequence (P11362 22-822): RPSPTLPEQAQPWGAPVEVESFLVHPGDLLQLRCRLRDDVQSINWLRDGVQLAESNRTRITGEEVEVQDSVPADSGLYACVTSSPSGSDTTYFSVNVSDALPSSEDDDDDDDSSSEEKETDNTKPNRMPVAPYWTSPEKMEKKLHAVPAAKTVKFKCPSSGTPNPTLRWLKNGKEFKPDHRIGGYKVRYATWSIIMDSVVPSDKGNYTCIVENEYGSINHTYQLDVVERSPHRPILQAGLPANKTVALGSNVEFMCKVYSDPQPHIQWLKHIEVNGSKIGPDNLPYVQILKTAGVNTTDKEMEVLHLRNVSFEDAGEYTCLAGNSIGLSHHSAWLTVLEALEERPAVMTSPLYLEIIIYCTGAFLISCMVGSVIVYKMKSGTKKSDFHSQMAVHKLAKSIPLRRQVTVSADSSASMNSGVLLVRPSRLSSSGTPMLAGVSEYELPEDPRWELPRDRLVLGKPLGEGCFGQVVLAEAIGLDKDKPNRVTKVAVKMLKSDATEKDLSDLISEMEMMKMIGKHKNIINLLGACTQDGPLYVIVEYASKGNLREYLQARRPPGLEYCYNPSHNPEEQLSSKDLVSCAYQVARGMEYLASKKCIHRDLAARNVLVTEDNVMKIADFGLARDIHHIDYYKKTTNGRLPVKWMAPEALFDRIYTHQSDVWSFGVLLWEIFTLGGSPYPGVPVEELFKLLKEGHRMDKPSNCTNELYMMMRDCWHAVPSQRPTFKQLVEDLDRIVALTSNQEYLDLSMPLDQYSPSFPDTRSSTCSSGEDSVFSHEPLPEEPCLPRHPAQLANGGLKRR
Procedure, shortened: (§1)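 First, phage lysates carrying tagged kinase are made in E. coli at 32° C. Next, they are combined with blocked biotin-ligand streptavidin beads and compound at 0.9% final DMSO. Finally, eluted kinase is measured by qPCR and Kd is fitted with the Hill equation.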

[3] = molecular target: T2, FGFR2 (Homo sapiens, UniProt P21802); assay: as above; conditions: read-out: FGFR2 (Kd nM)
T2 construct: made in house; host or cells: E. coli (BL21-derived), T7 phage
T2 sequence (P21802 22-821): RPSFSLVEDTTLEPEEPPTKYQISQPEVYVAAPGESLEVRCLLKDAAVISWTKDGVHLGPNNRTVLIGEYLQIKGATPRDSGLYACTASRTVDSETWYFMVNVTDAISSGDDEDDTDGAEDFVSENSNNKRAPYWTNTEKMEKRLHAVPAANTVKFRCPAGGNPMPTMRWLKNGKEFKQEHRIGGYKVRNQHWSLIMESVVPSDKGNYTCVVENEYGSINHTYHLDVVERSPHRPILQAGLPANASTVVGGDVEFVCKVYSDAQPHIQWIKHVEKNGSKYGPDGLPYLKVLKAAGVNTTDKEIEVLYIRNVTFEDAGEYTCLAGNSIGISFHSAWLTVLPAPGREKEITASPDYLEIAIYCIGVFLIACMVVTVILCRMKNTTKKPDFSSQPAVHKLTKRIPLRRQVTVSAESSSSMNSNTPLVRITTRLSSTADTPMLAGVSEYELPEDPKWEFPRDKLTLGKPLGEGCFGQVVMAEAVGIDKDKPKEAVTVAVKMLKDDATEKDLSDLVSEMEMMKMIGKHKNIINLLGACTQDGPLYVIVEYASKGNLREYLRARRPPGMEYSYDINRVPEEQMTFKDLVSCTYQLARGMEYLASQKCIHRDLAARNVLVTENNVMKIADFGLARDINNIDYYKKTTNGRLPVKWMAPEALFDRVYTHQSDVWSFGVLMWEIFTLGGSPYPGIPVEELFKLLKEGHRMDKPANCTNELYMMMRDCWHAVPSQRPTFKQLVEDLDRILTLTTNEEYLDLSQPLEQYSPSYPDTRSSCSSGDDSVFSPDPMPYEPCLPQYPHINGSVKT
Procedure, shortened: as §1

[4] = molecular target: T3, FGFR4 (Homo sapiens, UniProt P22455); assay: as above; conditions: read-out: FGFR4 (Kd nM)
T3 construct: made in house; host or cells: E. coli (BL21-derived), T7 phage
T3 sequence (P22455 22-802): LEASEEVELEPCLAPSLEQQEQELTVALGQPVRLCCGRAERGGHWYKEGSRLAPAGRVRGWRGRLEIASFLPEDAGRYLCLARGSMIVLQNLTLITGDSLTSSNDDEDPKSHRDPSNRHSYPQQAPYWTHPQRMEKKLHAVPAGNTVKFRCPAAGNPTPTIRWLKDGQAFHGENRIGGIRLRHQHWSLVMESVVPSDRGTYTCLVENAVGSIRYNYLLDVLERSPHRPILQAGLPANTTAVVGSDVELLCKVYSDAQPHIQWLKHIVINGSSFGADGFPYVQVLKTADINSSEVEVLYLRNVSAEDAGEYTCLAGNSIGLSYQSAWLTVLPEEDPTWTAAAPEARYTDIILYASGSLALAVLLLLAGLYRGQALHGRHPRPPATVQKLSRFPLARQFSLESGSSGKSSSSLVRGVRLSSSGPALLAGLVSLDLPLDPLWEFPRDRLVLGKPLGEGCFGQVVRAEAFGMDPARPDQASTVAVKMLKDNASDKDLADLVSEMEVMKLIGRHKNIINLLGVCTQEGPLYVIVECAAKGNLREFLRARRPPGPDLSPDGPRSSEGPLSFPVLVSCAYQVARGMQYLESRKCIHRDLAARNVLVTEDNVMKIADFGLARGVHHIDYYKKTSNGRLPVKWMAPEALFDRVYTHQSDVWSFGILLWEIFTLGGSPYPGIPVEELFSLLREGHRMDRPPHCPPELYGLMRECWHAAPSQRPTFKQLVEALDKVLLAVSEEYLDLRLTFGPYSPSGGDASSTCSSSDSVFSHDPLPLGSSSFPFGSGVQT
Procedure, shortened: as §1

[5] = molecular target: T4, FGFR3 (Homo sapiens, UniProt P22607); assay: as above; conditions: read-out: FGFR3 (Kd nM)
T4 construct: made in house; host or cells: E. coli (BL21-derived), T7 phage
T4 sequence (P22607 23-806): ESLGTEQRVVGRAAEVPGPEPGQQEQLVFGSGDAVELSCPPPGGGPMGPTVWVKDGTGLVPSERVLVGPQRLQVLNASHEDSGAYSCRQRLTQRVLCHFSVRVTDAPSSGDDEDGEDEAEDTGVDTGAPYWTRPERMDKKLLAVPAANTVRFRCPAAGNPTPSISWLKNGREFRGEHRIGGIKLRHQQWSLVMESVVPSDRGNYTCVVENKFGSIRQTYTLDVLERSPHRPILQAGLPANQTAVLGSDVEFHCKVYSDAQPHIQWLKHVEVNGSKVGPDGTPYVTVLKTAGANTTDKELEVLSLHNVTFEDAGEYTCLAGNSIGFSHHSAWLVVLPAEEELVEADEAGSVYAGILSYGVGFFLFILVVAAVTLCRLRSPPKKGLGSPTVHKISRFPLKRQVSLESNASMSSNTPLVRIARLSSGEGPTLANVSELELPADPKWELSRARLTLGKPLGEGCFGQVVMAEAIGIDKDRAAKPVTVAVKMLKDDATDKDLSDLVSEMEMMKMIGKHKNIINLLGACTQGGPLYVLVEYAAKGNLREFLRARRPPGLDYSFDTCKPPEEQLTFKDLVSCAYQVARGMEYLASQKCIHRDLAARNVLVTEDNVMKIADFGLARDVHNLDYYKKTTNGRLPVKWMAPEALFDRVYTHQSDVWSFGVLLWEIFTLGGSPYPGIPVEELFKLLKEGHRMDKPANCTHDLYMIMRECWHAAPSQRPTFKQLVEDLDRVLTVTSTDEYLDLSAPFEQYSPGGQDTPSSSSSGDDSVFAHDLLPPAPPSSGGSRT
Procedure, shortened: as §1

[6] = molecular target: T5, FGFR3 (V555M) (Homo sapiens, UniProt P22607, V555M); assay: as above; conditions: V555M mutant; read-out: FGFR3 (V555M) (Kd nM)
T5 construct: made in house; host or cells: E. coli (BL21-derived), T7 phage
T5 sequence (P22607 23-806 V555M): as the sequence (P22607 23-806) above, with V533M counted along it
Procedure, shortened: as §1

[7] = test system: KATO-III cell line (FGFR2 amplification); assay: Cancer cell line cell viability assay (Cell Titer-Glo), 72 hr; assay type: cell-based; conditions: Homo sapiens, KATO III
Procedure, shortened: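 5,000-20,000 cells/well o/n; cpd 9-pt 4x dil from 3 μM, n=3; 37° C/5% CO2; CTG 2.0 lumi; % DMSO ctrl; 4PL IC50.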

[8] = test system: KG-1 cell line (FGFR 1-fusion); assay: as above; assay type: cell-based; conditions: Homo sapiens, KG-1, KG-1 cell line (FGFR1-fusion)
Procedure, shortened: (§2)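 Cells were seeded at 5,000–20,000 per well, then exposed to a 9-point, 4-fold dilution series from 3 μM top concentration in triplicate at 37° C. Exposure was 120 h for MDA-MB-453 and HuH7 and 72 h for KG-1 and RT112/84. Viability was read as ATP by Cell Titer-Glo 2.0, expressed as % of DMSO control, and fitted by 4-parameter IC50.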

[9] = test system: RT112/84 cell line (FGFR3-fusion); assay: as above; assay type: cell-based; conditions: Homo sapiens, RT112/84, RT112/84 cell line (FGFR3-fusion)
Procedure, shortened: as §2

IC50 [1] [µM]	Kd [2] [nM]	Kd [3] [nM]	Kd [4] [nM]	Kd [5] [nM]	Kd [6] [nM]	IC50 [7] [µM]	IC50 [8] [µM]	IC50 [9] [µM]	SMILES
0.05 to 0.2	50 to 300	50 to 300	1 to 50	1 to 50	1 to 50				C[C@@H](Oc1cc2c(-c3cnc(N4CC(C)(CN5CCOCC5)C4)c(C#N)c3)n[nH]c2cc1F)c1c(Cl)cncc1Cl [Example 137, (R)-5-(5-(1-(3,5-dichloropyridin-4-yl)ethoxy)-6-fluoro-1H-indazol-3-yl)-2-(3-methyl-3-(morpholinomethyl)aze-tidin-1-yl)nicotinonitrile]
0.2 to 1	300 to 1000	300 to 1000	1 to 50	50 to 300	50 to 300				COc1cc2[nH]nc(-c3cnc(N4CC(C)(NC(C)C)C4)c(C#N)c3)c2cc1O[C@@H](C)c1c(Cl)cncc1Cl [Example 330, (S)-5-(5-(1-(3,5-dichloropyridin-4-yl)ethoxy)-6-methoxy-1H-indazol-3-yl)-2-(3-(isopropylamino)-3-methylazetidin-1-yl)nicotinonitrile]
0.05 to 0.2						0.2 to 1	0.2 to 1	0.05 to 0.2	C[C@@H](Oc1cc2c(-c3cnc(N4CC(C)(NCCO)C4)c(C#N)c3)n[nH]c2cc1F)c1c(Cl)cncc1Cl [Example 129, (R)-5-(5-(1-(3,5-dichloropyridin-4-yl)ethoxy)-6-fluoro-1H-indazol-3-yl)-2-(3-((2-hydroxyethyl)amino)-3-methylazetidin-1-yl)nicotinonitrile]
0.2 to 1	> 1000	> 1000	1 to 50	300 to 1000	300 to 1000				COc1cc2[nH]nc(-c3cnc(N4C[C@H](CS(C)(=O)=O)[C@H]4C)c(C#N)c3)c2cc1O[C@@H](C)c1c(Cl)cncc1Cl [Example 335, 5-(5-((S)-1-(3,5-dichloropyridin-4-yl)ethoxy)-6-methoxy-1H-indazol-3-yl)-2-((2R,3S)-2-methyl-3-((meth-ylsulfonyl)meth-yl)azetidin-1-yl)nicotinonitrile]
0.2 to 1	300 to 1000	300 to 1000	1 to 50	50 to 300	50 to 300				COc1cc2[nH]nc(-c3cnc(N4CC(C)(NCC(C)(C)O)C4)c(C#N)c3)c2cc1O[C@@H](C)c1c(Cl)cncc1Cl [Example 331, (S)-5-(5-(1-(3,5-dichloropyridin-4-yl)ethoxy)-6-methoxy-1H-indazol-3-yl)-2-(3-((2-hydroxy-2-methylpro-pyl)amino)-3-methylazetidin-1-yl)nicotinonitrile]

Second part, the compound before the results:

SMILES	IC50 [1] [µM]	Kd [2] [nM]	Kd [3] [nM]	Kd [4] [nM]	Kd [5] [nM]	Kd [6] [nM]	IC50 [7] [µM]	IC50 [8] [µM]	IC50 [9] [µM]
C[C@@H](Oc1ccc2[nH]nc(-c3cnc(N4CC(C)(CNS(C)(=O)=O)C4)c(C#N)c3)c2c1)c1c(Cl)cncc1Cl [Example 18, (R)-N-((1-(3-cyano-5-(5-(1-(3,5-dichloropyridin-4-yl)ethoxy)-1H-indazol-3-yl)pyridin-2-yl)-3-methylazetidin-3-yl)methyl)methane-sulfonamide]	0.0001 to 0.05	50 to 300	50 to 300	1 to 50	1 to 50	1 to 50			
COc1cc2[nH]nc(-c3cnc(N4CC(C)(N(C)C)C4)c(S(C)(=O)=O)c3)c2cc1O[C@H](C)c1c(Cl)cncc1Cl [Example 1, (R)-1-(5-(5-(1-(3,5-dichloropyridin-4-yl)ethoxy)-6-methoxy-1H-indazol-3-y1)-3-(methylsulfonyl)pyridin-2-yl)-N,N,3-trimethylazetidin-3-amine]	0.0001 to 0.05	1 to 50	1 to 50	1 to 50	1 to 50	1 to 50			
COc1cc2[nH]nc(-c3cnc(N4CC(C)(NC5CCC5)C4)c(C#N)c3)c2cc1O[C@H](C)c1c(Cl)cncc1Cl [Example 12, (R)-2-(3-(cyclobutylamino)-3-methylazetidin-1-yl)-5-(5-(1-(3,5-dichloropyridin-4-yl)ethoxy)-6-methoxy-1H-indazol-3-yl)nicotinonitrile]	0.0001 to 0.05	1 to 50	1 to 50	1 to 50	1 to 50	1 to 50			
C[C@@H](Oc1cc2c(-c3cnc(N4CC(C)(N5CCOCC5)C4)c(C#N)c3)n[nH]c2cc1F)c1c(Cl)cncc1Cl [Example 124, (R)-5-(5-(1-(3,5-dichloropyridin-4-yl)ethoxy)-6-fluoro-1H-indazol-3-yl)-2-(3-methyl-3-morpholinoazetidin-1-yl)nicotinonitrile]	0.05 to 0.2	50 to 300	50 to 300	1 to 50	1 to 50	1 to 50			
CNC1(C)CN(c2ncc(-c3n[nH]c4ccc(O[C@H](C)c5c(Cl)cnc(C)c5Cl)cc34)cc2C#N)C1 [Example 32, 5-[5-[(1R)-1-(3,5-dichloro-2-methyl-4-pyridyl)ethoxy]-1H-indazol-3-yl]-2-[3-methyl-3-(methylamino)azetidin-1-yl]pyridine-3-carbonitrile]	0.05 to 0.2	1 to 50	50 to 300	1 to 50	1 to 50	1 to 50			
CCN(CC)C1(C)CN(c2ncc(-c3n[nH]c4ccc(O[C@H](C)c5c(Cl)cncc5Cl)cc34)cc2C#N)C1 [Example 31, 5-[5-[(1R)-1-(3,5-dichloro-4-pyridyl)ethoxy]-1H-indazol-3-yl]-2-[3-(diethylamino)-3-methyl-azetidin-1-yl]pyridine-3-carbonitrile]	0.05 to 0.2	1 to 50	50 to 300	1 to 50	1 to 50	1 to 50			
Cc1ncc(Cl)c([C@@H](C)Oc2ccc3[nH]nc(-c4cnc(N5CC(C)(OC6CCC6)C5)c(C#N)c4)c3c2)c1Cl [Example 46, (R)-2-(3-Cyclobutoxy-3-methylazetidin-1-yl)-5-(5-(1-(3,5-dichloro-2-methyl-pyridin-4-yl)ethoxy)-1H-indazol-3-yl)nicotinonitrile]	> 1	> 1000	> 1000	1 to 50	300 to 1000	50 to 300			
CCN(CC)C1(C)CN(c2ncc(-c3n[nH]c4ccc(O[C@H](C)c5c(Cl)cnc(C)c5Cl)cc34)cc2C#N)C1 [Example 36, 5-[5-[(1R)-1-(3,5-dichloro-2-methyl-4-pyridyl)ethoxy]-1H-indazol-3-yl]-2-[3-(diethylamino)-3-methyl-azetidin-1-yl]pyridine-3-carbonitrile]	0.2 to 1	50 to 300	50 to 300	1 to 50	1 to 50	1 to 50			
Cc1ncc(Cl)c([C@@H](C)Oc2ccc3[nH]nc(-c4cnc(N5CC(C)(N(C)C)C5)c(C#N)c4)c3c2)c1Cl [Example 45, 5-[5-[(1R)-1-(3,5-dichloro-2-methyl-4-pyridyl)ethoxy]-1H-indazol-3-yl]-2-[3-(dimethylamino)-3-methyl-azetidin-1-yl]pyridine-3-carbonitrile]	0.05 to 0.2	50 to 300	50 to 300	1 to 50	1 to 50	1 to 50			
